Laboratory results as given in patent US5846976A, “Androstenone derivative” (Glaxo Wellcome Inc., priority 1996, dated 1998).

Tests used:
[1] = tested on: porcine granulosa cell 3β-hydroxy-Δ^5-steroid dehydrogenase/3-keto-Δ^5-steroid isomerase (3BHSD); conditions: Tan et al. 1987; Brandt and Levy 1989; cited from earlier work
[2] = McConnell 1990; Rasmusson et al. 1984; cited from earlier work
[3] = tested on: bovine adrenal 3β-hydroxy-Δ^5-steroid dehydrogenase/3-keto-Δ^5-steroid isomerase (3BHSD); conditions: Tan et al. 1987; Brandt and Levy 1989; cited from earlier work
[4] = target: T1, human type 2 5α-reductase (Homo sapiens, UniProt P31213); test: Steroid 5α-reductase type 2 inhibition (microsomes, conversion of testosterone to DHT); assay type: biochemical
T1 construct: made in house; host or cells: SF9 insect cells infected with recombinant baculovirus (microsomes)
T1 sequence (P31213 1-254): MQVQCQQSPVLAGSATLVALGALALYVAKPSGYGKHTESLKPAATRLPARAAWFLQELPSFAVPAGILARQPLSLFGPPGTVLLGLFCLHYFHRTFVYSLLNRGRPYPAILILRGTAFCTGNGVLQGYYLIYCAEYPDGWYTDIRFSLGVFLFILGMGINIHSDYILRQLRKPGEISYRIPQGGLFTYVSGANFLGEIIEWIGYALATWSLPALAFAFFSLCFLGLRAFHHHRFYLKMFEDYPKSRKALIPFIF
Method: (§1) Enzyme activies may be determined using microsomes derived from: 1) prostate tissue from benign prostatic hyperplasia (BPH) patients; 2) recombinant baculovirus infected SF9 cells that express human type 1 5α-reductase; or 3) recombinant baculovirus infected SF9 cells that express human type 2 5α-reductase. Microsomes were prepared by homogenization of the tissue or cells, followed by differential centrifugation of the homogenate. Microsome extracts were incubated with varying concentrations of [1,2,6,7-3H]-testosterone, 1 mM NADPH, and varying amounts of the compounds of Formula I, i.e. a test compound, in buffer containing a NADPH regenerating system capable of maintaining NADPH concentrations for a period of time within the range 0.5-240 minutes. Corresponding incubations were carried out with no test compound as a control study. For clone 1 IC50 measurements, assay components except testosterone were preincubated for 10 minutes at pH 7.0, and following the addition of 100 nM testosterone the assays were allowed to proceed for 10-120 minutes. For clone 2 IC50 measurements, assay components except testosterone were preincubated for 20 minutes at pH 6.0, and following the addition of 8 nM testosterone the assays were allowed to proceed for 20-40 minutes. […]

[5] = target: T2, human type 1 5α-reductase (Homo sapiens, UniProt P18405); test: Steroid 5α-reductase type 1 inhibition (microsomes, conversion of testosterone to DHT); assay type: biochemical
T2 construct: made in house; host or cells: SF9 insect cells infected with recombinant baculovirus (microsomes)
T2 sequence (P18405 1-259): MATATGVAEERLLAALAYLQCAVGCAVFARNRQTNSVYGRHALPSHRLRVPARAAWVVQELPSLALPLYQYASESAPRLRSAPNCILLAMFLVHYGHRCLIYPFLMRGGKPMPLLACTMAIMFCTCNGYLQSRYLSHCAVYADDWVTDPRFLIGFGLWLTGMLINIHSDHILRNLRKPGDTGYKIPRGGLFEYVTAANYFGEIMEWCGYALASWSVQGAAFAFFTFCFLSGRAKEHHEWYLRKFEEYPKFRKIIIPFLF
Method: as §1

5α-reductase = test: Potency compared to finasteride and SKF105657
Human Adrenal 3BHSD = target: T3, Human Adrenal 3BHSD (Homo sapiens, UniProt P26439); test: Human adrenal 3β-hydroxy-Δ^5-steroid dehydrogenase/3-keto-Δ^5-steroid isomerase inhibition (microsomes, conversion of DHEA to androstenedione); assay type: biochemical
T3 construct: microsomes derived from human adrenal tissues; from tissue; host or cells: human adrenal tissue (microsomes)
T3 sequence (P26439 1-372): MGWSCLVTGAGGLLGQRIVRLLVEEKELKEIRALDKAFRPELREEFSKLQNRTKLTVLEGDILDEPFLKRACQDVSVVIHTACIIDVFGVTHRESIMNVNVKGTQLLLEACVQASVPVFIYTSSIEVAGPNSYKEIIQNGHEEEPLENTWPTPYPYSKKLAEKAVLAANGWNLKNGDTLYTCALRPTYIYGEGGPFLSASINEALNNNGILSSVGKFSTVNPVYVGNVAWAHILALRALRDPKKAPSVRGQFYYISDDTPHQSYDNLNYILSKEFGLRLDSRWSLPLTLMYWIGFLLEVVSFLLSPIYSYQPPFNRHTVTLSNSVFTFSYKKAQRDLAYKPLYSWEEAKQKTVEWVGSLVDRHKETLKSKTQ
Method: Enzyme activities are measured using microsomes derived from human adrenal tissues. Microsomes were prepared by homogenization of the tissue followed by differential centrifugation of the homogenate. Microsome extracts were incubated with varying concentrations of dehydroepiandrosterone (DHEA), 1 mM NAD+, and varying amounts of the compound of Formula (I), i.e. a test compound, in pH 7.5 buffer for a period of time within the range of 1 to 60 minutes. Corresponding incubations were carried out with no test compound as a control study. The percentage of conversion of DHEA to androstenedione in the presence of test compounds compared to the corresponding conversion in the control study was estimated using HPLC with radiochemical detection.

[6] = Half-life compared to finasteride and SKF105657

In the case of CCN(CC)C(=O)[C@H]1CC[C@H]2[C@@H]3CC[C@H]4N(C)C(=O)CC[C@]4(C)[C@H]3CC[C@]12C [4-MA], the “inhibition of porcine granulosa cell 3BHSD” value [1] is listed as “potent inhibition”, the hepatotoxicity [2] is listed as “hepatotoxicity” and the “inhibition of bovine adrenal 3BHSD” value [3] is listed as “potent inhibition”.

With C[C@]12C=CC(=O)N[C@@H]1CC[C@@H]1[C@@H]2CC[C@]2(C)[C@@H](C(=O)Nc3cc(C(F)(F)F)ccc3C(F)(F)F)CC[C@@H]12 [compound of formula (I), 17β-N-(2,5-bis(Trifluoromethyl))phenylcarbamoyl-4-aza-5α-androst-1-en-3-one] the IC50 [4] was < 1 nM, the IC50 [5] was < 1 nM and the potency (5α-reductase) was “surprisingly long half-life and potency compared to finasteride and SKF105657”. For the same compound, the Ki (Human Adrenal 3BHSD) was > 1000 nM and the half-life [6] was “surprisingly long half-life”.
